Like-named read-outs stand apart in the source and are kept apart here.
Legend:
Conditions in all cases: PKIS2 primary screening
SH-SY5Y cells [1] = test: AK (adenylate kinase) release ToxiLight cytotoxicity assay; further: reference of the scale not given here
SH-SY5Y cells [2] = test system: SH-SY5Y cells; further: reference of the scale not given here
endogenous TFE3 = test: TFE3 nuclear translocation, immunocytochemistry high-content imaging; assay type: cell-based
endogenous TFEB = test: TFEB nuclear translocation, immunocytochemistry high-content imaging; assay type: cell-based
SH-SY5Y cells [3] = test: Nuclear count from microscopy images (cellular growth and toxicity); further: reference of the scale not given here

Structure (SMILES)	AK (SH-SY5Y cells [1])	DQ Intensity (SH-SY5Y cells [2])	DQ Spot (SH-SY5Y cells [2])	TFE3 % (endogenous TFE3) [%]	TFEB % (endogenous TFEB) [%]	Nuclear Count (SH-SY5Y cells [3])	DQ Intensity (SH-SY5Y cells [2]; DQ Red BSA intensity)	DQ Spot (SH-SY5Y cells [2]; DQ Red BSA spot count)
CCn1cnc2c(NCc3ccccc3)ncnc21 [UNC10225370A]	79.45	98.37	103.57	13.91	4.85	102.90		
COc1cc2ncn(-c3cc(OCC4CCCO4)c(C(N)=O)s3)c2cc1OC (stereo not drawn) [UNC10225372A]	162.91	86.61	87.29	10.50	6.13	102.24		
CN1CCN(CCCNc2nccc(-c3c(-c4ccc(F)cc4)nn4cc(C(F)(F)F)ccc34)n2)CC1 [UNC10225376A]	108.97	120.10	102.44	16.03	5.73	97.99		
Cl.c1ccc(Cn2cnc3cc(Nc4ncnc5ccccc45)ccc32)cc1 [UNC10225378A]	86.98			16.85	2.97	84.68	110.75	119.25
NS(=O)(=O)c1cccc(-c2ccc3nccc(-c4cccc(S(N)(=O)=O)c4)c3c2)c1 [UNC10225379A]	131.37			17.04	4.73	79.09	88.37	88.03
Fc1ccc(-c2ncn(CCCN3CCOCC3)c2-c2ccccn2)cc1 [UNC10225382A]	83.54			18.86	3.28	93.57	121.86	115.12
COc1cc2ncn(-c3cc(OCc4ccncc4Br)c(C(N)=O)s3)c2cc1OC [UNC10225386A]	64.35	93.85	100.07	3.25	6.47	97.54		
Cc1ccc(NC(=O)Nc2ccc(Cl)cc2)cc1-c1ccc(C(=O)Nc2ccncc2)cc1 [UNC10225388A]	83.48	98.78	97.95	28.63	7.90	82.28		
CCCCCc1nc2c(N)ncnc2n1CCCCC [UNC10225389A]	96.98	103.02	109.08	10.63	4.57	110.88		
CCn1c(-c2nonc2N)nc2c(C#CC(C)(C)O)ncc(OCCCCN)c21.O=C(O)C(F)(F)F.O=C(O)C(F)(F)F [UNC10225393A]	69.12	115.98	109.86	10.89	2.26	121.84		
Cc1ccc(NC(=O)Nc2ccccc2F)cc1-c1ccc(C(=O)Nc2ccncc2)cc1 [UNC10225398A]	135.60	90.99	98.29	17.53	7.18	104.03		
NS(=O)(=O)c1cccc(-c2ccc3ncc(N4CCOCC4)nc3c2)c1 [UNC10225400A]	95.42			6.51	4.14	118.72	83.02	88.90
Cc1c(Cn2c(C)nn3c(=O)cc(N4CCO[C@H](C)C4)nc23)cccc1C(F)(F)F [UNC10225403A]	91.29	146.49	116.83	10.58	3.43	94.79		
CN1C(=O)C(Nc2ccc(Cl)c(C(=O)O)c2)=C(c2ccc(Cl)cc2)C1=O [UNC10225406A]	75.31			10.12	3.59	91.26	120.55	105.90
CCn1c(-c2ccccc2)nc2cnccc21 [UNC10225407A]	88.86	107.17	104.42	8.88	8.26	99.61		
Nc1ncnc2c1ncn2-c1cccc2ccccc12 [UNC10225410A]	106.56	80.92	97.35	8.71	7.46	88.30		
COc1ccc(-n2cnc3c(N)ncnc32)cc1 [UNC10225413A]	68.21	106.51	108.81	13.51	5.09	102.02		
Cc1cn2c(=O)cc(N3CCOCC3)nc2n1Cc1cccc(Cl)c1Cl [UNC10225415A]	43.75	62.82	98.81	10.27	6.30	117.08		

Structure (SMILES)	AK (SH-SY5Y cells [1])	DQ Intensity (SH-SY5Y cells [2])	DQ Spot (SH-SY5Y cells [2])	TFE3 % (endogenous TFE3) [%]	TFEB % (endogenous TFEB) [%]	Nuclear Count (SH-SY5Y cells [3])	DQ Intensity (SH-SY5Y cells [2]; DQ Red BSA intensity)	DQ Spot (SH-SY5Y cells [2]; DQ Red BSA spot count)
CSc1nn2c(=O)cc(N3CCOCC3)nc2n1Cc1cccc(C(F)(F)F)c1C [UNC10225417A]	90.24	90.90	96.76	6.63	3.46	112.74		
Fc1ccc(-c2nc[nH]c2-c2ccncc2)cc1 [UNC10225418A]	94.96			16.61	7.46	56.56	103.88	114.99
Cl.Cl.Cl.Fc1ccc(-c2ncn(C3CCNCC3)c2-c2ccnc(Nc3ccccc3)n2)cc1 [UNC10225420A]	105.24	95.71	100.38	15.52	8.15	78.56		
Cl.Cl.Cl.Fc1ccc(-c2ncn(C3CCNCC3)c2-c2ccnc(Nc3ccccc3)n2)cc1 [UNC10225420B]	83.09	154.30	110.72	11.83	2.15	69.94		
Cl.Fc1ccccc1COc1ccc(Nc2ncnc3ccc(-c4nnc(C(F)(F)F)o4)cc23)cc1Cl [UNC10225422A]	104.09			5.47	3.54	121.67	100.75	98.62
CSc1nccc(-c2c(-c3ccc(F)cc3)ncn2CCCN2CCOCC2)n1.Cl [UNC10225426A]	81.99	91.90	91.96	5.71	11.69	113.07		
CS(=O)(=O)Nc1ccc(-c2ccnc3[nH]ccc23)cc1 [UNC10225427A]	106.42			8.99	2.64	134.12	61.89	80.51
Nc1nc(-c2nccs2)c(-c2ccnc3ccccc23)s1 [UNC10225429A]	94.26			19.15	3.83	118.67	102.85	117.25
COc1cc(Nc2nccc(-c3c(-c4cccc(NC(=O)c5c(F)cccc5F)c4)nn4ncccc34)n2)cc(OC)c1OC [UNC10225433A]	102.19	122.13	59.34	17.61	23.04	35.61		
CSc1nn2c(=O)cc(N3CCOCC3)nc2n1Cc1cccc(Cl)c1Cl [UNC10225435A]	85.33	59.30	119.93	19.82	4.09	99.93		
CSc1cccc2c(-c3ccncn3)c(-c3ccc(F)cc3)nn12 [UNC10225437A]	100.64	120.45	125.69	10.83	6.79	89.95		
O=c1cc(N2CCOCC2)nc2n(Cc3cccc4ccccc34)ccn12 [UNC10225439A]	77.38	73.77	88.56	9.76	8.17	128.21		
Cl.O=C(Nc1cccc(-c2nn3ncccc3c2-c2ccnc(Nc3cccnc3)n2)c1)c1c(F)cccc1F [UNC10225440A]	101.41	138.59	122.41	9.74	7.43	119.73		
Oc1cc(Nc2ccnc3cc(I)ccc23)ccc1F [UNC10225441A]	73.72			8.03	12.97	104.34	124.88	110.03
CN1CCC(n2cnc(-c3ccc(F)cc3)c2-c2ccnc(NC3CCNCC3)n2)CC1 [UNC10225443A]	75.10	104.65	93.05	14.45	5.73	105.97		
COc1ccc(NC(=O)Nc2ccc(C)c(-c3ccc(C(=O)Nc4ccncc4)cc3)c2)cc1 [UNC10225445A]	81.64	64.07	80.56	17.87	6.73	96.32		
Cc1n[nH]c2ccc(-c3cc(OC[C@@H](N)Cc4ccccc4)cnc3-c3ccoc3)cc12.O=C(O)C(F)(F)F.O=C(O)C(F)(F)F [UNC10225447A]	97.39	66.58	65.23	18.99	5.41	74.49		
